Reference: US8791105B2, “Methods for alleviating chronic pain and improving performance of cattle undergoing dehorning or castration” (Kansas State University Research Foundation, priority 2010, dated 2014)
Read-outs that look alike come from different tables or passages of the source.

Assays:
[1] = tested on: calves with induced lameness; experiment: Step counts by pedometer in induced lameness; type: in vivo, British x Continental beef calves; details: PO once daily for 4 days from 4 h after lameness induction
Experimental: (§1) After acclimatization, lameness was induced as previously described (Kotschwar et al, 2009). More specifically, chemical synovitis/arthritis was induced with an injection of 20 mg amphotericin B (X-Gen Pharmaceuticals, Inc, Big Flats, N.Y.) into the left hind distal interphalangeal joint of each calf (Period 2). All calves were first restrained in a chute with a head gate as conducted through the acclimatization period, and the hind leg was restrained with ropes at the fetlock and stifle. After restraint, the appropriate hindlimb lateral digit pastern region was prepared with close clipping of hair (No. 40 clipper blade) and aseptic skin preparation using povidone iodine scrub and 70% isopropyl alcohol swabs, followed by injection of the amphotericin B. Amphotericin B is a polyene antibiotic that produces a controlled, mild to moderately severe synovitis/arthritis of short duration. After the sterile needle was inserted, correct placement into the distal interphalangeal joint was verified by aspiration of synovial fluid back into the syringe. Continued position within the distal interphalangeal joint was verified periodically throughout the injection by ease of injection followed by back-flow of synovial fluid and amphotericin B into the syringe. […]
Animal activity was assessed continuously with pedometers. […]

[2] = tested on: serum cortisol; details: for cortisol AUEC (area under the time-effect curve): 0.5 mg/kg IV immediately prior to dehorning, mean
[3] = tested on: calves with induced lameness; experiment: Visual lameness score (Sprecher scale) in induced lameness; type: in vivo, British x Continental beef calves; details: 5-point scale; p=0.03
Experimental: as §1, with “duration.” for “duration. After the sterile needle was inserted, correct placement into the distal interphalangeal joint was verified by aspiration of synovial fluid back into the syringe. Continued position within the distal interphalangeal joint was verified periodically throughout the injection by ease of injection followed by back-flow of synovial fluid and amphotericin B into the syringe.”
Animal activity was assessed continuously with pedometers.
Lameness scores were determined twice daily to document presence of lameness and to visually score severity of lameness. […] Intra-observer variability was assessed periodically by randomly selecting calves for repeated assessment to ensure consistency of scoring. […] Each lameness score was determined by watching the calf walk a minimum of 20 meters in a straight line, turn, and walk 20 meters back to the starting point.

[4] = Pen-level performance (ADG, DMI, G:F) of bulls castrated on arrival and steers (Example 4); type: in vivo, cross-bred beef calves; details: for ADG: pen-level mean estimate
Experimental: This study was designed as a stratified 2-arm parallel trial. […] Calves were maintained on open pens that consisted of a combination of concrete aprons and dirt pens. […] Upon arrival, calves were unloaded and sorted (d 0).
Processing and surgical castration was performed by the same operator to minimize variation in procedure. […] Briefly, the scrotum of each calf was cleaned with dilute chlorohexidine disinfectant and incised longitudinally with a Newberry knife (Jorgensen Lab, Loveland, Colo.). The testes and spermatic cords were exteriorized by blunt dissection and the cremaster was broken using manual traction. The spermatic cords were cut using a White's Double Crush emasculator (Jorgensen Lab, Loveland, Colo.) applied for approximately 30 seconds. Steers were subjected to the same handling procedures apart from knife cutting and castration.
After processing, calves were sorted into study pens. Calves from each load were ranked by BW and systematically allocated to pens based upon weight, gonadal status, and treatment group. For each of the 3 loads, 2 pens were assigned to each of the 4 treatment groups for a total of 24 pens. After allocation each pen contained 8 to 14 calves of the same treatment subclass: 6 pens of 10 to 14 calves in the CONT-CAST group, 6 pens of 10 to 14 calves in the MEL-CAST group, 6 pens of 8 to 10 calves in the […] group and 6 pens of 8 to 11 calves in the MEL-STR group. All pens were 12 m×16 m with 12 m of bunk space and one water source per pen. Calves were reweighed on day 14. Additionally, calves were revaccinated with the viral respiratory vaccine (Pyramid 5+ Presponse SQ, Fort Dodge Animal Health, Wyeth, Madison, N.J.) and given a pour-on eprinomectin at 500 μg/kg BW (Eprinex, Merial Limited, Duluth, Ga.) at this time. Final BW was obtained at the end of the study on day 28.
All animals were individually weighed on arrival (day 0), prior to feeding at revaccination on day 14, and at the end of the study on day 28. Conditions were standardized for all animals at each time point. Feed consumption for each pen was determined on a daily basis by subtracting the weight of feed remaining at the next feeding from the total feed weight assigned to the pen. When animals were removed for health reasons, the amount of feed delivered to the pen and the corresponding animal gain in the pen were adjusted accordingly so that calculations for ADG, DMI and corresponding G:F were based on the number of calves remaining in the pen. Animal health data recorded for each calf identified as sick included the pull date, the individual animal identification number, body temperature, clinical score, a presumptive diagnosis, BW, and treatment.
The ancillary production variables (ADG, days on feed [DOF], and daily DMI) were calculated for all animals that completed the feeding period.
A general linear mixed model was fit to each performance response (DMI, ADG, G:F ratio) measured at the pen level. […] Random effects fit on the linear predictor included Lot as a blocking factor. Repeated observations within a pen were modeled using a compound symmetry residual variance-covariance structure. For DMI, the residual variance-covariance was expanded to accommodate heterogeneous variances at each time period. […] Newton-Raphson with ridging was the estimation algorithm implemented.

[5] = bulls (castrated), 1 mg/kg per os 24 h prior, d1-14
[6] = bulls (castrated), 1 mg/kg per os 24 h prior, d15-28
[7] = steers, 1 mg/kg per os 24 h prior to processing, d1-14
[8] = steers, 1 mg/kg per os 24 h prior to processing, d15-28

Cc1cnc(NC(=O)C2=C(O)c3ccccc3S(=O)(=O)N2C)s1 [meloxicam, 4-hydroxy-2-methyl-N-(5-methyl-2-thiazolyl)-2H-1,2-benzothiazine-3-carboxamide-1,1-dioxide]
steps taken over the course of the study [1]: 4,667.87±166.64 steps | cortisol AUEC (area under the time-effect curve) [2]: 122,961±20,441 minute · nmol/L | cortisol AUEC (area under the time-effect curve) ([2]; listed as Meloxicam): 122,961 ± 20,441 minute · nmol/L | difference in serum cortisol concentrations and heart rate between meloxicam- and placebo-treated groups ([2]; after dehorning, 0.5 mg/kg IV): no significant difference | visual lameness score vs PLBO [3]: Significantly more PLBO calves had a visual lameness score of 3 and 4 | DMI [4, 5]: 4.80 kg | G:F [4, 5]: 0.19 | ADG [4, 5]: 0.95 kg | DMI [4, 6]: 7.01 kg | G:F [4, 6]: 0.21 | ADG [4, 6]: 1.50 kg | DMI [4, 7]: 5.06 kg | G:F [4, 7]: 0.30 | ADG [4, 7]: 1.51 kg | DMI [4, 8]: 7.23 kg | G:F [4, 8]: 0.20 | ADG [4, 8]: 1.46 kg | effect of meloxicam administration on DMI ([4]; vs placebo, p=0.73): no evidence of an effect | effect of meloxicam administration on G:F ([4]; vs placebo, p=0.73): no evidence of an effect | effect of meloxicam administration on ADG ([4]; vs placebo, p=0.972): no evidence of an effect
